Like-named read-outs stand apart in the source and are kept apart here.
Assays:
recombinant human MAO-B = target: T1, recombinant human MAO-B (Homo sapiens, UniProt P27338); experiment: Inhibitory activity on recombinant human MAO-B (kynuramine, fluorescence); format: biochemical; conditions: for isoenzyme selectivity by selectivity index (MAO-B): from Si values; for IC50: recombinant human MAO-B, kynuramine substrate
T1 construct: purchased Sigma-Aldrich
T1 sequence (P27338 1-520): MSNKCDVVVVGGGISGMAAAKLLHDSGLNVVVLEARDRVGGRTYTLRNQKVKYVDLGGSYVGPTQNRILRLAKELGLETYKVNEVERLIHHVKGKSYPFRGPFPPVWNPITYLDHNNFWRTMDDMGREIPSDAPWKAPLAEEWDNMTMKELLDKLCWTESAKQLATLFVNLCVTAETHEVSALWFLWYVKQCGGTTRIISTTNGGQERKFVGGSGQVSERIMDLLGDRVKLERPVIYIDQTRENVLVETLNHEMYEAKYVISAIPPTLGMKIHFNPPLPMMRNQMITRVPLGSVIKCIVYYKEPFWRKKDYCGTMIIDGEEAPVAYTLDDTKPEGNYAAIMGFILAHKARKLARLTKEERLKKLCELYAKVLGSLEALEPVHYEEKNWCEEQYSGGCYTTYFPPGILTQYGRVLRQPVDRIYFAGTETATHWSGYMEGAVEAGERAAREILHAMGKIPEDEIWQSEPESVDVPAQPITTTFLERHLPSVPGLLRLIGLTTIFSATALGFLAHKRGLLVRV
Method: (§1) The inhibitory activity assays of the isolated compound with recombinant human MAO-A and MAO-B (Sigma-Aldrich, St. Louis, MO, USA) were carried out with some modification as described recently by. In brief, 1–6 and 8–10 were first dissolved in DMSO to obtain a stock solution with a concentration of 25 mM. The activity was determined by serial dilution of each concentration of the compounds. For the MAO-A inhibitor assay, 4.5 µL of kynuramine (Sigma-Aldrich, St. Louis, MO, USA) were mixed with 234.75 µL of potassium phosphate buffer (100 mM, pH 7.4, made isotonic with KCl, 20.2 mM). Then, 3 µL of kynuramine were mixed with 236.25 µL of potassium phosphate buffer (pH 7.4) for the MAO-B inhibitor assay. The reaction was stopped by adding 400 µL of 2N NaOH and 1000 µL of water. The fluorescence of 4-hydroxyquinoline (Sigma-Aldrich, St. Louis, MO, USA), a by-product of this reaction, was measured with the excitation wavelength at 310 nm and the emission wavelength at 400 nm. The initial rates of MAO-catalyzed kynuramine oxidation were plotted versus the logarithm of the inhibitor concentrations and reported as IC50 values by using the Prism software package (GraphPad Software, version 5, San Diego, CA, USA) to evaluate quantitative. IC50 values were converted to Ki values by using the equation Ki = IC50/(1 + [S]/Km).

Aβ1-42 = target: T2, Aβ1-42 (Homo sapiens, UniProt P05067); experiment: Thioflavin-T assay of Aβ1-42 self-aggregation inhibition; format: biochemical; conditions: for % Inhibition of Aβ Aggregation: Aβ1-42 10 µM, 24 h at 37 °C, Th-T fluorescence; for percent of self-aggregation of Aβ-(1-42): without any compound taken as 100%
T2 construct: Aβ1-42 was dissolved in a 50 mM phosphate buffer (pH 7.4)
Method: A thioflavin-T (Th-T) assay was used to evaluate the ability of 1–6 and 8–10, isolated from GN bark resin extract, to inhibit Aβ42 aggregation. The presence of Aβ plaques in the brain appears to be related to cognitive decline and neurodegeneration.
The Thioflavin-T assay used to investigate the Aβ1-42 self-aggregation activity was performed as previously described. Aβ1-42 was dissolved in a 50 mM phosphate buffer (pH 7.4) to obtain a […] stock solution. […] In black and opaque 96-well plates, 2 µL of each compound were added at a concentration of 100 µM. Then, in each well, Aβ1-42 solution was added to give a final concentration of 10 µM and mixed thoroughly. Covered plates were left in the dark for 24 h at 37 °C without agitation. After incubation, each well was loaded with 190 µL of […] ThT in 50 mM glycine/NaOH buffer (pH 8.0), and fluorescence intensities were measured at 446 nm and 490 nm for excitation and emission, respectively. The percent inhibition of each compound was calculated and reported.

recombinant human MAO-A = target: T3, recombinant human MAO-A (Homo sapiens, UniProt P21397); experiment: Inhibitory activity on recombinant human MAO-A (kynuramine, fluorescence); format: biochemical; conditions: for Si MAO-A: selective index from Ki values (Ki = IC50/(1 + [S]/Km)), Si = Ki (MAO-B)/Ki (MAO-A)
T3 construct: purchased Sigma-Aldrich
T3 sequence (P21397 1-527): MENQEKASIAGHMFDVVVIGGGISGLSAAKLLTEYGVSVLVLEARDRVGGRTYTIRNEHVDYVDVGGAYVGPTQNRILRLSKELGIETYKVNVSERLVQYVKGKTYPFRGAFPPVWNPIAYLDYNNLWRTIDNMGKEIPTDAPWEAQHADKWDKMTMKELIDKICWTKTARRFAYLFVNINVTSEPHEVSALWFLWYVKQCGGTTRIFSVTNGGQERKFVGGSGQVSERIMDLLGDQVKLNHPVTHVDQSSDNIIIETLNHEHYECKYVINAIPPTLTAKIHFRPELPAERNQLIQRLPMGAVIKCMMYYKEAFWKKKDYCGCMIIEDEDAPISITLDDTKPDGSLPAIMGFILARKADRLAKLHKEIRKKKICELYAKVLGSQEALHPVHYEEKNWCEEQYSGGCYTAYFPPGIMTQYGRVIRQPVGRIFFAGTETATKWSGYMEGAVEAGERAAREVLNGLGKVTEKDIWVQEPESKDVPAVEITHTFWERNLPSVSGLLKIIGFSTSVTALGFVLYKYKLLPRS
Method: as §1

Aβ (1-42) = test system: Aβ (1-42); parameters: method as in PMID 27038926; conditions: Aβ (1-42) incubated with compound 6 days at 37 °C; cited from earlier work
[1] = selective index from Ki values (Ki = IC50/(1 + [S]/Km)), Si = Ki (MAO-B)/Ki (MAO-A)
[2] = recombinant human MAO-A, kynuramine substrate, read-out: IC50 MAO-A

T2 sequence (P05067 672-713 limits assumed): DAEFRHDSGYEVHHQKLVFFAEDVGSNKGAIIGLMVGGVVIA

| isoenzyme selectivity by selectivity index (MAO-B) (recombinant human MAO-B) | IC50 (recombinant human MAO-B) | Si MAO-B (recombinant human MAO-B; [1]) | % Inhibition of Aβ Aggregation (Aβ1-42; compound 100 µM) | percent of self-aggregation of Aβ-(1-42) (Aβ1-42; compound 100 µM) | IC50 (recombinant human MAO-A; [2]) | Si MAO-A (recombinant human MAO-A) | % Inhibition of Aβ Aggregation (Aβ1-42; positive control at 5 µM) | percent of self-aggregation of Aβ-(1-42) (Aβ1-42; positive control at 5 µM) | Structure (SMILES) | amyloid aggregation inhibition (Aβ (1-42)) | Si MAO-B (recombinant human MAO-B) | IC50 (recombinant human MAO-A) |
| --- | --- | --- | --- | --- | --- | --- | --- | --- | --- | --- | --- | --- |
| selectivity index on MAO-B | 17.99 ± 0.11 µM | 0.294 | 46.79 ± 5.46% | 53.21 ± 5.46% | 100.2 ± 0.35 µM | 3.407 | – | – | COc1cc2oc3c(OC)c(O)ccc3c(=O)c2c(O)c1CC=C(C)C [Compound 1, cowagarcinone C] | – | – | – |
| – | 238.5 ± 2.03 µM | 3.254 | 58.56 ± 3.28% | 41.44 ± 3.28% | 119.8 ± 0.75 µM | 0.307 | – | – | COc1cc2c(=O)c3c(O)c(C/C=C(\C)CCC=C(C)C)c(O)cc3oc2cc1O [Compound 2, cowaxanthone] | – | – | – |
| – | – | – | – | – | – | – | 51.73 ± 2.89% | 48.27 ± 2.89% | COc1cc(/C=C/C(=O)CC(=O)/C=C/c2ccc(O)c(OC)c2)ccc1O [Curcumin, reference compound] | – | – | – |

The remaining lines, values behind:

| Structure (SMILES) | isoenzyme selectivity by selectivity index (MAO-B) (recombinant human MAO-B) | IC50 (recombinant human MAO-B) | Si MAO-B (recombinant human MAO-B; [1]) | % Inhibition of Aβ Aggregation (Aβ1-42; compound 100 µM) | percent of self-aggregation of Aβ-(1-42) (Aβ1-42; compound 100 µM) | IC50 (recombinant human MAO-A; [2]) | Si MAO-A (recombinant human MAO-A) | % Inhibition of Aβ Aggregation (Aβ1-42; positive control at 5 µM) | percent of self-aggregation of Aβ-(1-42) (Aβ1-42; positive control at 5 µM) | amyloid aggregation inhibition (Aβ (1-42)) | Si MAO-B (recombinant human MAO-B) | IC50 (recombinant human MAO-A) |
| --- | --- | --- | --- | --- | --- | --- | --- | --- | --- | --- | --- | --- |
| COc1c(O)cc2oc3cc(O)c(CC=C(C)C)c(O)c3c(=O)c2c1CC=C(C)C [Compound 3, α-mangostin] | selectivity index on MAO-B | 40.1 ± 0.89 µM | 0.821 | Not detected | – | 79.81 ± 0.5 µM | 1.218 | – | – | inhibiting amyloid aggregation | – | – |
| COc1cc2oc3cc(O)c(CC=C(C)C)c(O)c3c(=O)c2c(CC=C(C)C)c1OC [Compound 4, cowaxanthone B] | selectivity index on MAO-B | 15.6 ± 0.26 µM | 0.6333 | Not detected | – | 40.21 ± 0.35 µM | 1.579 | – | – | – | – | – |
| COc1c(O)cc2oc3cc(O)c(CC=C(C)C)c(O)c3c(=O)c2c1C/C=C(\C)CCC=C(C)C [Compound 5, cowanin] | – | 16.3 ± 1.44 µM | – | Not detected | – | – | 0.266 | – | – | – | 3.762 | 7.1 ± 0.03 µM |
| COc1c(O)cc2oc3cc4c(c(O)c3c(=O)c2c1C/C=C(\C)CCC=C(C)C)C=CC(C)(C)O4 [Compound 6, fuscaxanthone A] | selectivity index on MAO-B | 0.07 ± 0.01 µM | 0.00179 | Not detected | – | 69.92 ± 0.06 µM | 558.273 | – | – | – | – | – |
| COc1c(O)cc2oc3cc4occc4c(O)c3c(=O)c2c1C/C=C(\C)CCC=C(C)C [Compound 8, xanthochymusxanthone A] | – | > 400 µM | 0.6522 | Not detected. | – | 100.5 ± 0.44 µM | <0.153 | – | – | – | – | – |
| COc1c(O)c(CC=C(C)C)c2oc3cc(O)c(CC=C(C)C)c(O)c3c(=O)c2c1CC=C(C)C [Compound 9, 7-O-methylgarcinone E] | selectivity index on MAO-B | 0.4 ± 0.01 µM | 0.0256 | Not detected | – | 25.4 ± 0.63 µM | 38.705 | – | – | – | – | – |
| COc1c(O)c(CC=C(C)C)c2oc3cc(O)c(CC=C(C)C)c(O)c3c(=O)c2c1C/C=C(\C)CCC=C(C)C [Compound 10, cowagarcinone A] | – | > 400 µM | 183.168 | Not detected | – | 3.58 ± 0.02 µM | <0.005 | – | – | – | – | – |
